For one molecule, GI50 results are on record in article PMC6327044, “A chemical biology screen identifies a vulnerability of neuroendocrine cancer cells to SQLE inhibition” (Nature Communications, 2019).

Holding throughout (assay): cells
What all share (parameters): species or system panel of 482 human cancer cell lines; ATPLite luminescence growth inhibition after treatment, nine-point dilution curve, 482 cancer cell lines, 384-well
Conditions in all cases: 72 h, recommended growth medium
Background: Cellular ATP, detected with luciferase, serves as a proxy for viable cell number.

In one experiment the test system is LU139_LUNG. The protocol:
(§1) Cells were seeded in recommended growth media in black 384-well tissue culture treated plates at 500 cells per well. Cells were equilibrated in assay plates via centrifugation and placed in incubators for 24 h before treatment. […] Treated assay plates were incubated with compounds for 72 h and subsequently were developed for endpoint analysis using ATPLite. Each compound was assessed using a nine-point dilution curve. Cells were defined as sensitive to a given compound based on GI75 < 2 μM with manual quality control of curve fit. GI75 is defined as a drug concentration that causes a 75% reduction in assay readout relative to dimethyl sulfoxide (DMSO)-treated controls. To identify novel cancer vulnerabilities, we screened a panel of 482 cell lines with a diverse set of metabolic inhibitors. […] Given that SCLC is thought to arise from neuroendocrine cells in the lung[9], we tested the NB-598 sensitivity in a panel of 42 SCLC cell lines. We calculated a quantitative metric of sensitivity for each cell line based on the area under the curve (AUC) of the mu/mu.max curve to more accurately capture the potency and extent of NB-598 effects. […] We categorized the SCLC cell lines as sensitive (5/42), moderate (11/42), and insensitive (26/42) (Fig. 1c and Supplementary Data 2) and focused all subsequent efforts on this indication. […] To further understand the patterns of sensitivity, we conducted RNA sequencing (RNA-Seq; Supplementary Data 3) and proteomic (Supplementary Data 4) characterization of the SCLC panel to identify unbiased expression signatures associated with enhanced NB-598 response (Supplementary Fig. 1 and Supplementary Fig. 2). Given the growing understanding that SCLC tumors can be further subdivided based on the status of lineage-defining transcription factors, ASLC1 and NEUROD1, we specifically investigated NB-598 response as the function of ASCL1 and NEUROD1 expression levels. […] To further dissect the NB-598 response within the ASCL1-high/NEUROD-low subset of 25 cell lines, we identified RNA-Seq and proteomics expression signatures associated with NB

The subject of a further experiment is HCC2218_BREAST. The procedure:
as §1

The test system of a further experiment is OAW28_OVARY. The protocol: as §1
A further experiment relates to TE11_OESOPHAGUS
The protocol: as §1

In a further experiment the test system is NCIH841_LUNG. The procedure:
as §1

The test system of the next experiment is SNU308_BILIARY_TRACT. The protocol:
as §1

The test system of a further experiment is MFE280_ENDOMETRIUM
The procedure:
as §1

The subject of another experiment is AU565_BREAST. The protocol:
as §1

For a further experiment, the system named is KURAMOCHI_OVARY. The protocol:
as §1

Another experiment relates to UACC893_BREAST. The protocol:
as §1

Experiment [1] has as its system MINO_HAEMATOPOIETIC_AND_LYMPHOID_TISSUE. The protocol:
as §1

The test system of another experiment is HT115_LARGE_INTESTINE
The procedure:
as §1

Another experiment has as its system GSS_STOMACH. The procedure: as §1
The next experiment relates to JHH5_LIVER. The protocol: as §1
The test system of the next experiment is SKMEL3_SKIN. The protocol:
as §1

For another experiment, the system named is NCIH2122_LUNG. The protocol:
as §1

The next experiment relates to HGC27_STOMACH. The protocol: as §1

As usually defined, the GI50 is the concentration giving 50% growth inhibition. High values mean less potent growth inhibition, low ones more potent growth inhibition.

Consider `CCN(C/C=C/C#CC(C)(C)C)Cc1cccc(OCc2cc(-c3ccsc3)cs2)c1` [NB-598], for which the GI50 in the experiment on LU139_LUNG was determined as 0.0321 µM; with HCC2218_BREAST, 7.17 µM; in the experiment on OAW28_OVARY, 65.4 µM; with TE11_OESOPHAGUS, 8.58 µM; in the experiment on NCIH841_LUNG, 13.2 µM; with SNU308_BILIARY_TRACT, 2.92 µM. Besides, the GI50 in the experiment with MFE280_ENDOMETRIUM amounted to 0.0169 µM; in the experiment on AU565_BREAST it was 399 µM; in the experiment with KURAMOCHI_OVARY, 52 µM; with UACC893_BREAST, 1.19 µM; in experiment [1] it was 33.4 µM; in the experiment with HT115_LARGE_INTESTINE it was 2.72 µM. Besides, the concentration for 50% growth inhibition (GI50) in the experiment with GSS_STOMACH was 12.3 µM; in the experiment with JHH5_LIVER, 42.7 µM; in the experiment with SKMEL3_SKIN, 0.263 µM; with NCIH2122_LUNG, 7.51 µM; in the experiment on HGC27_STOMACH, 14.8 µM.
